Data reported in US7084133B2, “Dicarba-closo-dodecaborane derivatives” (priority 2001, dated 2006).

System: promyelocytic leukemia strain HL-60
Experiment: Test for induction of cell differentiation in HL-60 cells (NBT reducing ability), compound alone or with coexistence of VD3
Format: cell-based
Conditions: compound alone
Description: Cell differentiation-inducing action was examined for each of the compounds obtained in the examples alone or with the coexistence of 1×10^−8 M1α,25-dihydroxyvitamin D3 (VD3). According to the method described in Japanese Patent Unexamined Publication (Kokai) No. 61–76440, cell differentiation of promyelocytic leukemia strain HL-60 into granulocytic series was determined based on morphological change and measurement of ability to reduce nitroblue tetrazolium (NBT). The values in the table indicate ratios (%) of differentiated cells calculated from the NBT reducing ability, and the row represented by “VD3” indicates the results obtained by using vitamin D3.

For `C=C1/C(=C\C=C2/CCC[C@]3(C)[C@@H]([C@H](C)CCCC(C)(C)O)CC[C@@H]23)C[C@@H](O)C[C@@H]1O` [VD3, 1α,25-dihydroxyvitamin D3], the “ratios (%) of differentiated cells calculated from the NBT reducing ability” value (Log Concentration (M) −7) was 75%, the “ratios (%) of differentiated cells calculated from the NBT reducing ability” value (Log Concentration (M) −8) was 41% and the “ratios (%) of differentiated cells calculated from the NBT reducing ability” value (Log Concentration (M) −9) was 7%.
